The source of these data is ChEMBL document CHEMBL1140084, “Discovery and evaluation of 4-(2-(4-chloro-1H-pyrazol-1-yl)ethylamino)-3-(6-(1-(3-fluoropropyl)piperidin-4-yl)-4-methyl-1H-benzo[d]imidazol-2-yl)pyridin-2(1H)-one (BMS-695735), an orally efficacious inhibitor of insulin-like growth factor-1 receptor kinase with broad spectrum in vivo antitumor …” (J Med Chem, 2008).

One data set concerns the target Cytochrome P450 3A4 (Homo sapiens, UniProt P08684). Briefly: Inhibition of human recombinant CYP3A4 in human liver microsomes using BFC as a substrate.
The nature of data set [1]: Antiproliferative activity against transgenic mouse SAL cells overexpressing human IGF1R assessed as [3H]thymidine incorporation after 72 hrs.
In data set [2] the target is T1, Nuclear receptor subfamily 1 group I member 2 (Homo sapiens, UniProt O75469).
T1 sequence (O75469 whole entry): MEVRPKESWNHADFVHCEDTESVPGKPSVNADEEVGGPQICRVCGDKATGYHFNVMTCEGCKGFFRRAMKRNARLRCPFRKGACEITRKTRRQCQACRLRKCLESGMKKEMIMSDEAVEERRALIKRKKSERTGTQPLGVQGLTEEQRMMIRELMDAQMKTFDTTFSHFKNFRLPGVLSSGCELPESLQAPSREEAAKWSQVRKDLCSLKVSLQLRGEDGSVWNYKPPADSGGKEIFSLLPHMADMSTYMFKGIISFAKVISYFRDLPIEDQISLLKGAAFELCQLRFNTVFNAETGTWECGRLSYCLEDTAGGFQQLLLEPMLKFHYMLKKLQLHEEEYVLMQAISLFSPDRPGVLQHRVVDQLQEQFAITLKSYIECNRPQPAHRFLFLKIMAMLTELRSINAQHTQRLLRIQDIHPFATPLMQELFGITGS
Briefly: Induction of PXR transactivation.

Data set [3] in a line: AUC in mouse at 20 mg/kg after 4 hrs. Format: ADME, organism-based. Set-up: time < 4 hr, dose 20 mg/kg. As to conditions: plasma.

Where only a bound is given, the exact number is not on record here.

Cytochrome P450 3A4, sequence (P08684 whole entry): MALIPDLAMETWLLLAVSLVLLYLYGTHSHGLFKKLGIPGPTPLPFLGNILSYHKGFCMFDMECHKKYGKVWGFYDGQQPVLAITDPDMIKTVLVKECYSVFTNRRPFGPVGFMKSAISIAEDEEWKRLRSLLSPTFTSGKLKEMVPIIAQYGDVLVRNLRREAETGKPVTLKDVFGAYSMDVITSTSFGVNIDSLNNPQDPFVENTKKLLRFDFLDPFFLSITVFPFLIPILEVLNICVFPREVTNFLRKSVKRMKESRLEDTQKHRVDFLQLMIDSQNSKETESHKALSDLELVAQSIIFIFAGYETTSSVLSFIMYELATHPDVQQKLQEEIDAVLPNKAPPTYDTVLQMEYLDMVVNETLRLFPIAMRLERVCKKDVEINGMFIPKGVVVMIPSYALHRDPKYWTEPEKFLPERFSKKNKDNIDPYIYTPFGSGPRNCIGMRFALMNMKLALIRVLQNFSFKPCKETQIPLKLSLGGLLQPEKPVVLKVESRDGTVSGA

For the molecule `COCCN1CCC(c2cc(C)c3nc(-c4c(NC[C@@H](O)c5ccc(OC)c(Cl)c5)cc[nH]c4=O)[nH]c3c2)CC1`, the half-inhibitory concentration (IC50) was found to be 7.7 µM at Cytochrome P450 3A4 and 0.013 µM in data set [1]. Moreover, in data set [2], the EC20 is above 50 µM. Also, the area under the curve (AUC) at 4 h in data set [3] turned out to be 0.49 µM·h.
Take `COc1ccc([C@H](O)CNc2cc[nH]c(=O)c2-c2nc3c(C)cc(C4CCN(CCCF)CC4)cc3[nH]2)cc1Cl`: the concentration for half-maximal inhibition (IC50) amounted to 10 µM on Cytochrome P450 3A4 and 0.04 µM in data set [1]. This molecule also registered an EC20 in data set [2] above 50 µM. Besides, the AUC at 4 h in data set [3] came to 0.28 µM·h.
For `Cc1cc(C2CCN(CCCF)CC2)cc2[nH]c(-c3c(NC[C@@H](O)c4cccc(Cl)c4)cc[nH]c3=O)nc12`, the IC50 in data set [1] was 0.076 µM. The molecule also returned an EC20 in data set [2] above 50 µM.
For `Cc1cc(C2CCN(C)CC2)cc2[nH]c(-c3c(NCCn4cc(Cl)cn4)cc[nH]c3=O)nc12`, the results for the 50% inhibitory concentration (IC50) (on Cytochrome P450 3A4; in data set [1]) were 40 µM and 0.162 µM, respectively. This molecule also had a concentration for an effect of 20% (EC20) in data set [2] above 50 µM. This molecule also yielded an exposure (AUC) at 4 h in data set [3] of 0.4 µM·h.
Taken in the same sequence, the figures for `Cc1cc(C2CCN(C)CC2)cc2[nH]c(-c3c(NC[C@@H](O)c4cccc(Cl)c4)cc[nH]c3=O)nc12` were 14 µM, 0.085 µM, above 50 µM and 1.2 µM·h.
